Test results as given in patent US10149887B2, “Peptides and peptidomimetics in combination with t cell activating and/or checkpoint inhibiting agents for cancer treatment” (CanBas Co., Ltd., priority 2015, dated 2018).
Where two headings read alike, the source gives them in different places. Square brackets hold non-standard residues; d marks the D form. Peptide text beside a SMILES is read from it. dPhe(F5) = N[C@H](Cc1c(F)c(F)c(F)c(F)c1F)C(=O)O; dBpa = N[C@H](Cc1ccc(C(=O)c2ccccc2)cc1)C(=O)O; dCha = N[C@H](CC1CCCCC1)C(=O)O

How the values were obtained:
[1] = system: NCI-H520; experiment: G2 checkpoint abrogation by CBP501 combined with cis-platin, flow cytometry; format: cell-based; details: NCI-H520, lung, SCC; cis-platin 3 μg/ml 3 hr, then 45 hr
Protocol: The medium was aspirated, fresh medium without these compounds was added and the cells were incubated for an additional 45 hr. The cells including floating cells were harvested using trypsin-EDTA solution, incubated with Krishan's solution and analyzed for DNA content by flow cytometry as previously described.

[2] = system: Jurkat cells; experiment: G2 checkpoint abrogation, flow cytometry of bleomycin treated Jurkat cells; format: cell-based, human
Protocol: Cell-cycle analysis The cell cycle status of the cells treated with bleomycin or adriamcin were analyzed by flow cytometry as described by Kawabe (1997) Nature 385:454-458. In brief, two million cells were re-suspended and incubated in 200 μl Krishan's solution (0.1% Sodium citrate, 50 μg/ml PI, 20 μg/ml RNase A and 0.5% NP-40) for 1 hr at 4° C. and analyzed by a flow cytometry, FACScan™ (Beckton Dickinson, Mountain View, Calif.) with the program CELLQuest™ (Beckton Dickinson).
Flow cytometry analysis of G2 checkpoint abrogation was performed using human leukemia derived Jurkat cell line. In brief, cultured cells were treated with various doses of peptide/peptidomimetic and 40 μg/ml bleomycine for 24 hr. The DNA of the cells was stained with propidium iodide and analyzed by flow cytometry.
The “G2 abrogating dose” indicates the peptide/peptidomimetic dose with 40 μg/ml bleomycine that produced detectable G2 checkpoint abrogation activity following treatment for 24 hours.
The G2 checkpoint abrogating activity of various arginine rich sequences at different doses on cells treated with bleomycine was studied. Briefly, peptides were added to culture medium of Jurkat cells with bleomycin (40 μg/ml) at 0.2 μg/ml, 0.39 μg/ml, 0.78 μg/ml, 1.56 μg/ml, 3.125 μg/ml, 6.25 μg/ml, 12.5 μg/ml, 25 μg/ml and 50 μg/ml. Cells were subsequently harvested after 24 hours, stained with Krishan's solution, and analyzed with flow cytometry as previously described.

[3] = Mouse serum treatment analysis (residual CBP501 by HPLC); format: in vitro ADME; details: CBP501 10 mM, 37 degree
[4] = Maximal tolerated dose in mouse by single injection; details: in vivo, observed for a week
[5] = system: neutrophils; experiment: NET formation by activated neutrophils (elastase activity); format: cell-based, human; details: 1 μM CBP501; PMA, A23187 or LPS
Excerpt: Referring to FIG. 17, Neutrophils were purified with EasySep neutrophil enrichment kit (Stemcell technol.) from human peripheral blood after removal of red blood cells with Hetasep (Stemcell technol.).

[6] = In vivo half life in mouse serum (HPLC); details: 40 mg/kg ip, read-out: Half-life after 40 mg/kg intra-peritoneal injection (converted)
[7] = system: MIAPaCa2; experiment: Sensitization of MIAPaCa2 to bleomycin or adriamycin (sub-G1 population, flow cytometry); format: cell-based, human; details: bleomycine 10 μg/ml or adriamycin 1 μg/ml, 3 hours, then 21 hours
Excerpt: FIGS. 3A and 3B Human pancreatic cancer derived cell line MIAPaCa2 treated with (FIG. 3A) bleomycin (Bleo) or (FIG. 3B) adriamycin (ADR) with various doses of compounds. Harvested cells were stained for their DNA and analyzed with flow cytometry. The % population of sub-G1 cells are indicated as dead cells.
The G2 checkpoint abrogating activity of various compounds at different doses on human pancreatic cancer derived cell line MIAPaCa2 treated with bleomycine (Bleo) or adriamycin (ADR) was studied. Briefly, cells were incubated with the compounds and bleomycine (10 μg/ml) or adriamycin (1 μg/ml) for 3 hours. The medium was changed and incubated for an additional 21 hours. Harvested cells were stained for DNA by propium iodide and analyzed with flow cytometry as previously described. The % of the sub-G1 cell population is indicated as dead cells in FIG. 3.

[8] = system: RAW264.7; experiment: TNF release from macrophage cell line RAW264.7 (ELISA); format: cell-based, mouse; details: 0.1 or 1 μM CBP501, LPS
Protocol: The released TNF were measured by ELISA.

[9] = system: M1 and M2 macrophages; experiment: Phagocytic activity of M1 and M2 macrophages (fluorescent beads, flow cytometry); format: cell-based, human; details: in vitro
Protocol: Referring to FIGS. 19A and 19B, macrophages were obtained by stimulating human peripheral blood mononuclear cells by 0.32 uM of PMA and removing all suspension cells 48 hours of PMA stimulation. The cells were further incubated with 50 ng/ml IFN-gamma, 10 ng/ml LPS to obtain M1 phenotype, and 20 ng/ml IL-4 to obtaine M2 macrophages. Both treatment was with or without CBP501. The phagocytic activity was monitored by using fluorescent labelled beads and flow cytometry.

[10] = cited from earlier work

N=C(N)NCCC[C@@H](NC(=O)[C@@H](CCCNC(=N)N)NC(=O)[C@@H](CCC(N)=O)NC(=O)[C@@H](CCCNC(=N)N)NC(=O)[C@@H](CCCNC(=N)N)NC(=O)[C@@H](CCCNC(=N)N)NC(=O)[C@@H](CC1CCCCC1)NC(=O)[C@@H](Cc1c(F)c(F)c(F)c(F)c1F)NC(=O)[C@@H](CO)NC(=O)[C@@H](Cc1c[nH]c2ccccc12)NC(=O)[C@@H](CO)NC(=O)[C@H](N)Cc1ccc(C(=O)c2ccccc2)cc1)C(=O)O [CBP501, (d-Bpa)(d-Ser)(d-Trp)(d-Ser)(d-Phe-2,3,4,5,6-F)(d-Cha)(d-Arg)(d-Arg)(d-Arg)(d-Gln)(d-Arg)(d-Arg)] (H-[dBpa][dS][dW][dS][dPhe(F5)][dCha][dR][dR][dR][dQ][dR][dR]-OH; N-terminus and C-terminus assumed)
G2 checkpoint abrogating dose of CBP501, cis-platin [1]: >10 µM | G2 checkpoint abrogating activity (in words) ([2]; Jurkat cells with bleomycin 40 μg/ml): abrogated in a dose dependent manner | G2 abrogating dose ([2]; dose with 40 μg/ml bleomycine giving detectable G2 checkpoint abrogation, 24 hours): ≥0.39 µM | Residual peptide after 1 hr mouse serum treatment (Mouse serum treatment analysis) [3]: >90% | MTD at 1 week ([4]; ip, single intra-peritoneal injection, read-out: MTD (ip)): 98.8 mg/kg | MTD at 1 week ([4]; single intravenous injection, read-out: MTD (iv)): 10 mg/kg | NET formation by activated neutrophils [5]: increased NET formation | half-life [6]: 3 h | Sensitization of MIAPaCa2 cells to bleomycin and adriamycin (% sub-G1, dead cells) [7]: sensitized MIAPaCa2 cells to both bleomycin and adriamycin in a dose dependent manner | Cytokine secretion (TNF release) of macrophages [8]: Inhibition of cytokine secretion | Phagocytosis of M1 and M2 macrophages [9]: inhibited phagocytosis of both M1 and M2 macrophages | Patients with dose limiting allergic reactions (grade 3) ([10]; CBP501 36.4 mg/m^2 and cisplatin 75 mg/m^2): two out of six | MTD of CBP501 in combination with cisplatin ([10]; with cisplatin 75 mg/m^2, once every 21 days): 24.3 mg/m^2
